Data: patent US12378224B2 (Dong-A Socio Holdings Co., Ltd., priority 2016, dated 2025)

Target: human MER (528-end) (Homo sapiens (Human), UniProt Q12866)
Experiment: HTRF Kinase Activity Biochemical Assay (KinEASE-TK)
Conditions: 10 uM ATP
Method in brief: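 Activity read-out is the HTRF ratio (665 nm over 620 nm emission, ×10,000; excitation 340 nm) after 1 h detection with 0.375 nM Eu3+-cryptate anti-TK antibody plus 0.062 uM SA-XL665. Preceding kinase step: human MER (528-end), biotinylated TK substrate, 1 h, room temperature.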

Sequence of human MER (528-end) (Q12866 528-999 limits assumed): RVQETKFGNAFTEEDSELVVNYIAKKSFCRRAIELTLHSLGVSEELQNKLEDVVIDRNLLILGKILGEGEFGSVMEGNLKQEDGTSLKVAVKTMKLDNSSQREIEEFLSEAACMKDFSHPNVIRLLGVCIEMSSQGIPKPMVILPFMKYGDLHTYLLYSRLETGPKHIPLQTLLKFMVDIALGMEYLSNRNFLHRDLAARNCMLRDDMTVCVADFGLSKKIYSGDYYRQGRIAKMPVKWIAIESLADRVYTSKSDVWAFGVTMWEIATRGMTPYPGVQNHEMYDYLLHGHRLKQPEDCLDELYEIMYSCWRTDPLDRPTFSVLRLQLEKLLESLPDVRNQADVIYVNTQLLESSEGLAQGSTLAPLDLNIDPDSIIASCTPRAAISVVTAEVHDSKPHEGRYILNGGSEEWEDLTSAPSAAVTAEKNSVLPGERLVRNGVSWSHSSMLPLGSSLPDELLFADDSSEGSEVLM

Row | IC50 | SMILES
1 | > 1000 nM | Nc1ncc(-c2cnn(C3CCNCC3)c2)cc1C(=O)N[C@@H]1CCN(Cc2cc(F)c(F)cc2F)C1 [Example 157, (R)-2-amino-5-(1-(piperidin-4-yl)-1H-pyrazol-4-yl)-N-(1-(2,4,5-trifluorobenzyl)pyrrolidin-3-yl)nicotinamide]
2 | > 1000 nM | Cn1cc(-c2cnc(N)c(C(=O)N[C@@H]3CCN(C(=O)c4cccc(-c5ccnc(N6CCNCC6)c5)c4)C3)c2)cn1 [Example 480, (R)-2-amino-5-(1-methyl-1H-pyrazol-4-yl)-N-(1-(3-(2-(piperazin-1-yl)pyridin-4-yl)benzoyl)pyrrolidin-3-yl)nicotinamide]
3 | > 1000 nM | Cn1cc(-c2cnc(N)c(C(=O)N[C@@H]3CCN(C(=O)Nc4ccn(C)n4)C3)c2)cn1 [Example 12, (R)-2-amino-N-(1-((1-methyl-1H-pyrazol-3-yl)carbamoyl)pyrrolidin-3-yl)-5-(1-methyl-1H-pyrazol-4-yl)nicotinamide]
4 | > 1000 nM | Cn1cc(-c2cnc(N)c(C(=O)N[C@@H]3CCN(C(=O)Nc4ccc(F)c(F)c4)C3)c2)cn1 [Example 3, (R)-2-amino-N-(1-((3,4-difluorophenyl)carbamoyl)pyrrolidin-3-yl)-5-(1-methyl-1H-pyrazol-4-yl)nicotinamide]
5 | 100 to 1000 nM | CN1CCN(Cc2cccc(-c3ccc(C(=O)N4CC[C@@H](NC(=O)c5cc(-c6cnn(C)c6)cnc5N)C4)cc3)c2)CC1 [Example 388, (R)-2-amino-5-(1-methyl-1H-pyrazol-4-yl)-N-(1-(3′-((4-methylpiperazin-1-yl)methyl)-[1,1′-biphenyl]-4-carbonyl)pyrrolidin-3-yl)nicotinamide]
6 | 100 to 1000 nM | Cn1cc(-c2cnc(N)c(C(=O)N[C@@H]3CCN(C(=O)c4cc5ccccc5s4)C3)c2)cn1 [Example 406, (R)-2-amino-N-(1-(benzo[b]thiophene-2-carbonyl)pyrrolidin-3-yl)-5-(1-methyl-1H-pyrazol-4-yl)nicotinamide]
7 | 100 to 1000 nM | Cn1cc(-c2cnc(N)c(C(=O)N[C@@H]3CCN(C(=O)c4ccc(-c5cccc(C(=O)N6CCNCC6)c5)cc4)C3)c2)cn1 [Example 466, (R)-2-amino-5-(1-methyl-1H-pyrazol-4-yl)-N-(1-(3′-(piperazine-1-carbonyl)-[1,1′-biphenyl]-4-carbonyl)pyrrolidin-3-yl)nicotinamide]
8 | > 1000 nM | Cn1cc(-c2cnc(N)c(C(=O)N[C@@H]3CCN(C(=O)c4cccc(-c5cccc(Cl)c5)c4)C3)c2)cn1 [Example 479, (R)-2-amino-N-(1-(3′-chloro-[1,1′-biphenyl]-3-carbonyl)pyrrolidin-3-yl)-5-(1-methyl-1H-pyrazol-4-yl)nicotinamide]
9 | 100 to 1000 nM | COC(=O)[C@H]1C[C@@H](NC(=O)c2cc(-c3cnn(C)c3)cnc2N)CN1C(=O)c1ccc(-c2ccccc2)cc1 [Example 683, methyl (2R,4R)-1-([1,1′-biphenyl]-4-carbonyl)-4-(2-amino-5-(1-methyl-1H-pyrazol-4-yl)nicotinamido)pyrrolidine-2-carboxylate]
10 | > 1000 nM | Cn1cc(-c2cnc(N)c(C(=O)N[C@@H]3CCN(C(=O)Oc4cccc(-c5cnn(CCO)c5)c4)C3)c2)cn1 [Example 284, 3-(1-(2-hydroxyethyl)-1H-pyrazol-4-yl)phenyl (R)-3-(2-amino-5-(1-methyl-1H-pyrazol-4-yl)nicotinamido)pyrrolidine-1-carboxylate]

Row | SMILES | IC50
11 | CN(C)Cc1ccc(Oc2ccc(OC(=O)N3CC[C@@H](NC(=O)c4cc(-c5cnn(C)c5)cnc4N)C3)cc2)cc1 [Example 115, 4-(4-((dimethylamino)methyl)phenoxy)phenyl (R)-3-(2-amino-5-(1-methyl-1H-pyrazol-4-yl)nicotinamido)pyrrolidine-1-carboxylate] | 100 to 1000 nM
12 | Cn1cc(-c2cnc(N)c(C(=O)N[C@@H]3CCN(C(=O)Oc4cccc(-c5ccc(CN6CCCC(CO)C6)cc5)c4)C3)c2)cn1 (stereo partly drawn) [Example 320, 4′-((3-(hydroxymethyl)piperidin-1-yl)methyl)-[1,1′-biphenyl]-3-yl (3R)-3-(2-amino-5-(1-methyl-1H-pyrazol-4-yl)nicotinamido)pyrrolidine-1-carboxylate] | 100 to 1000 nM
